Reference: US20250194968A1, “ADMINISTRATION OF AMINOLEVULINIC ACID WITH DELAYED FLUORESCENT IMAGING TO MAP AND QUANTIFY TISSUE OXYGENATION LEVELS” (THE TRUSTEES OF DARTMOUTH COLLEGE, priority 2022, published 2025)

Tested on: subcutaneous human pancreatic adenocarcinoma BxPC3 tumors
Assay: PpIX delayed/immediate fluorescence imaging of subcutaneous tumors after ALA injection, with palpation
Format: in vivo
Settings: nude mice with BxPC3 tumors, ALA 250 mg/kg intraperitoneal, imaged 6 hours later
Procedure: Nude female mice were inoculated with a single subcutaneous injection of 10^6 human pancreatic adenocarcinoma BxPC3 cells, under the skin on the flank. After approximately 3 weeks of growth, animals were chosen for imaging when their tumor diameter reached approximately 8 mm in size. These nude mice were used in the imaging experiments described below.
ALA was either intraperitoneally injected (250 mg/kg) 6 hours prior to imaging, or topically applied onto a region of interest 3 hours before imaging as Ameluz (Trademark of Biofrontera AG, Leverkusen, Germany), ointment containing 10% ALA, as further described below
Images of tumor in the live mice were acquired using a highly sensitive intensified CMOS camera synchronized with a 50-mW average output power, 635 nm, modulated diode laser using 20 microsecond (μs) pulses at repetition rate of 500 hertz (Hz) providing pulsed fluorescence excitation light. […] Irradiance were measured using a power meter with a photodiode power sensor.
The intensifier of the intensified CMOS camera was directly controlled by circuitry synchronized to the laser pulses. […] Fifty laser pulse gate periods were integrated in each image frame, alternating between immediate fluorescence and delayed fluorescence for even and odd frames, respectively. […]

NCC(=O)CCC(=O)O [ALA, aminolevulinic acid]
duration of excellent tumor contrast from palpation-induced deoxygenation (after palpation): up to 5 min | contrast in a pancreatic cancer model relative to surrounding normal oxygenated tissues (delayed fluorescence and DF/IF ratio) (in some examples): 5 factor
